# From patent US5234907A, “Synthetic vasoactive intestinal peptide analogs” (Hoffmann-La Roche Inc., priority 1991, dated 1993)
# *1 amine or outer side, *2 acyl side, *3 side chain or, on linkers, in order; H or OH if unused. [ ]: non-standard residue; d: D form. Cys(Acm) = CC(=O)NCSC[C@H](N[*:1])C(=O)[*:2]; Phe(4-F) = N[C@@H](Cc1ccc(F)cc1)C(=O)O; Nle = CCCC[C@H](N)C(=O)O
# Key:
# [1] = test system: guinea pig tracheal smooth muscle; assay: Tracheal relaxant activity of VIP analogs on isolated guinea pig tracheal rings; type: cell-based; settings: cumulative concentration response; responses as % of maximum response to VIP (10^-6 M=100%); at least three tissues pooled; linear regression
# guinea pigs = assay: In vivo bronchodilator activity by tracheal instillation against histamine-induced bronchoconstriction; set-up: species or system guinea pig; settings: 100 μl, anesthetized male Hartley guinea pigs, histamine challenge 50 μg/kg i.v., inhibition of tracheal pressure increase
Substance,EC50 [1],"Bronchodilator activity in guinea pigs, ED50 (guinea pigs)"
"Ac--[p-F--Phe^6, Glu^8, Lys^12, Nle^17, Ala^25, Leu^26, Lys^27,28, Gly^29,30, Thr^31 ]--VIP (Ac-HSDAV[Phe(4-F)]TENYTKLRKQ[Nle]AVKKYLNALKKGGT-NH2; SMILES CCCC[C@H](NC(=O)[C@H](CCC(N)=O)NC(=O)[C@H](CCCCN)NC(=O)[C@H](CCCNC(=N)N)NC(=O)[C@H](CC(C)C)NC(=O)[C@H](CCCCN)NC(=O)[C@@H](NC(=O)[C@H](Cc1ccc(O)cc1)NC(=O)[C@H](CC(N)=O)NC(=O)[C@H](CCC(=O)O)NC(=O)[C@@H](NC(=O)[C@H](Cc1ccc(F)cc1)NC(=O)[C@@H](NC(=O)[C@H](C)NC(=O)[C@H](CC(=O)O)NC(=O)[C@H](CO)NC(=O)[C@H](Cc1c[nH]cn1)NC(C)=O)C(C)C)[C@@H](C)O)[C@@H](C)O)C(=O)N[C@@H](C)C(=O)N[C@H](C(=O)N[C@@H](CCCCN)C(=O)N[C@@H](CCCCN)C(=O)N[C@@H](Cc1ccc(O)cc1)C(=O)N[C@@H](CC(C)C)C(=O)N[C@@H](CC(N)=O)C(=O)N[C@@H](C)C(=O)N[C@@H](CC(C)C)C(=O)N[C@@H](CCCCN)C(=O)N[C@@H](CCCCN)C(=O)NCC(=O)NCC(=O)N[C@H](C(N)=O)[C@@H](C)O)C(C)C) [Ac--(SEQ ID NO: 17)--NH2]",0.33 nM,0.12 µg
"Ac--[Lys^12, Nle^17, Ala^19, Ala^25, Leu^26, Lys^27,28 ]--VIP (Ac-HSDAVFTDNYTKLRKQ[Nle]AAKKYLNALKK-NH2; SMILES CCCC[C@H](NC(=O)[C@H](CCC(N)=O)NC(=O)[C@H](CCCCN)NC(=O)[C@H](CCCNC(=N)N)NC(=O)[C@H](CC(C)C)NC(=O)[C@H](CCCCN)NC(=O)[C@@H](NC(=O)[C@H](Cc1ccc(O)cc1)NC(=O)[C@H](CC(N)=O)NC(=O)[C@H](CC(=O)O)NC(=O)[C@@H](NC(=O)[C@H](Cc1ccccc1)NC(=O)[C@@H](NC(=O)[C@H](C)NC(=O)[C@H](CC(=O)O)NC(=O)[C@H](CO)NC(=O)[C@H](Cc1c[nH]cn1)NC(C)=O)C(C)C)[C@@H](C)O)[C@@H](C)O)C(=O)N[C@@H](C)C(=O)N[C@@H](C)C(=O)N[C@@H](CCCCN)C(=O)N[C@@H](CCCCN)C(=O)N[C@@H](Cc1ccc(O)cc1)C(=O)N[C@@H](CC(C)C)C(=O)N[C@@H](CC(N)=O)C(=O)N[C@@H](C)C(=O)N[C@@H](CC(C)C)C(=O)N[C@@H](CCCCN)C(=O)N[C@@H](CCCCN)C(N)=O) [Ac--(SEQ ID NO: 12)--NH2]",1.5 nM,0.014 µg
"Ac--[Glu^8, Lys^12, Nle^17, Ala^19, Val^26, Thr^28, Gly^29,30, Thr^31 ]--VIP (Ac-HSDAVFTENYTKLRKQ[Nle]AAKKYLNSVLTGGT-NH2; SMILES CCCC[C@H](NC(=O)[C@H](CCC(N)=O)NC(=O)[C@H](CCCCN)NC(=O)[C@H](CCCNC(=N)N)NC(=O)[C@H](CC(C)C)NC(=O)[C@H](CCCCN)NC(=O)[C@@H](NC(=O)[C@H](Cc1ccc(O)cc1)NC(=O)[C@H](CC(N)=O)NC(=O)[C@H](CCC(=O)O)NC(=O)[C@@H](NC(=O)[C@H](Cc1ccccc1)NC(=O)[C@@H](NC(=O)[C@H](C)NC(=O)[C@H](CC(=O)O)NC(=O)[C@H](CO)NC(=O)[C@H](Cc1c[nH]cn1)NC(C)=O)C(C)C)[C@@H](C)O)[C@@H](C)O)C(=O)N[C@@H](C)C(=O)N[C@@H](C)C(=O)N[C@@H](CCCCN)C(=O)N[C@@H](CCCCN)C(=O)N[C@@H](Cc1ccc(O)cc1)C(=O)N[C@@H](CC(C)C)C(=O)N[C@@H](CC(N)=O)C(=O)N[C@@H](CO)C(=O)N[C@H](C(=O)N[C@@H](CC(C)C)C(=O)N[C@H](C(=O)NCC(=O)NCC(=O)N[C@H](C(N)=O)[C@@H](C)O)[C@@H](C)O)C(C)C) [Ac--(SEQ ID NO: 15)--NH2]",0.55 nM,0.064 µg
"Ac--[p-F--Phe^6, Glu^8, Lys^12, Nle^17, Ala^19, Val^26, Thr^28, Gly^29,30, Cys(Acm)^31 ]--VIP (Ac-HSDAV[Phe(4-F)]TENYTKLRKQ[Nle]AAKKYLNSVLTGG[Cys(Acm)]-NH2; SMILES CCCC[C@H](NC(=O)[C@H](CCC(N)=O)NC(=O)[C@H](CCCCN)NC(=O)[C@H](CCCNC(=N)N)NC(=O)[C@H](CC(C)C)NC(=O)[C@H](CCCCN)NC(=O)[C@@H](NC(=O)[C@H](Cc1ccc(O)cc1)NC(=O)[C@H](CC(N)=O)NC(=O)[C@H](CCC(=O)O)NC(=O)[C@@H](NC(=O)[C@H](Cc1ccc(F)cc1)NC(=O)[C@@H](NC(=O)[C@H](C)NC(=O)[C@H](CC(=O)O)NC(=O)[C@H](CO)NC(=O)[C@H](Cc1c[nH]cn1)NC(C)=O)C(C)C)[C@@H](C)O)[C@@H](C)O)C(=O)N[C@@H](C)C(=O)N[C@@H](C)C(=O)N[C@@H](CCCCN)C(=O)N[C@@H](CCCCN)C(=O)N[C@@H](Cc1ccc(O)cc1)C(=O)N[C@@H](CC(C)C)C(=O)N[C@@H](CC(N)=O)C(=O)N[C@@H](CO)C(=O)N[C@H](C(=O)N[C@@H](CC(C)C)C(=O)N[C@H](C(=O)NCC(=O)NCC(=O)N[C@@H](CSCNC(C)=O)C(N)=O)[C@@H](C)O)C(C)C) [Ac--(SEQ ID NO: 67)--NH2]",1.9 nM,0.30 µg
